From US20130096070A1, “PEPTIDE TARGETING OF INNER EAR CELLS” (priority 2009, published 2013)
No end group written: not given here.

Columns and labels:
[1] = system: mouse saccule and utricle cultures; assay: Phage display panning of mouse saccule and utricle cultures, sequencing of colonies; format: binding; conditions: colonies with this sequence among one hundred colonies sequenced after four rounds of panning
Experimental: C57B1/6 Mice were purchased from Jackson Laboratory (Bar Harbour, Me.). At 8 weeks of age the mice were sacrificed and saccule and utricles were isolated under direct visualization. The cells were cultured in 100 μl DMEM/0.001 M neomycin for 48 hours as is standard. All animal protocols were approved by the University of Kansas animal research advisory committee.
A phage library (New England Biolabs, Beverly, Mass.) displaying random 7-mer peptides attached to the NH2-terminus of the pIII protein of the filamentous M13 bacteriophage was used for panning with mouse inner ear cells. In round 1 of panning, 2×10^11 plaque-forming units of the phage library in 200 μl of 1×PBS buffer were added to the inner ear cells and were incubated for 4 h at 4° C. with shaking. The cells were washed 10× with Tris-buffered saline/0.1% Tween under direct visualization and the remaining bound phage were eluted for 10 min with 100 μl of 0.2 M glycine-HCl, pH 2.2, and neutralized with 15 μl of 1 M Tris-HCl, pH 9. A 10 μl aliquot was used for tittering and the remaining eluate was used to infect early log phase ER2738 host bacteria in 20 ml LB media and amplified for 4.5 h at 37° C. with shaking. Bacteria were removed by pellet centrifugation 2×10 min at 10,000 g. The supernantant was added to ⅙ quantity 20% (w/v) polyethylene glycol-8000, 2.5 M NaCl. After overnight incubation at 4° C., the phage was pelleted by centrifugation at 15 min at 10,000 g, and resuspended in 200 μl TBS. Amplified phage product was tittered on X-gal/IPTG plates. A 10 μl aliquot from the phage pool was used to titer phage pfu/μl before and after phage amplification in E. coli. In subsequent rounds 2×10^11 plaque-forming units of the amplified phage pool from the previous round were added to mouse inner ear cells and panned was performed as previously described. All panning experiments were performed in duplicate.
After 4 rounds of panning, isolated colonies were streak plated on X-gal/IPTG plates. Individual colonies were used to infect early log phase ER2738 host bacteria in 4 ml LB media and amplified for 4.5 h at 37° C. The bacteria was pelleted by centrifugation and phage recovered from the supernatant using QIAprep Spin M13 kit (Qiagen, Valencia, Calif.) and resuspended in 50 μl molecular grade water. ssDNA quantity was determined by absorption spectrophotometry. The 7-mer peptide DNA coding regions were sequenced using a −96 gIII sequencing primer (5′-CCCTCATAGTTAGCGTAACG-3′). These sequences were translated and queried on the BLAST protein database (NCBI).
One hundred colonies were sequenced (Table 1). There were 23 colonies which translated to the peptide sequence t-v-p-q-l-t-t, which was homologous to the protein laminin. Eleven colonies which translated to the peptide sequence s-t-t-k-l-a-l, which was homologous to a sodium/hydrogen exchanger protein. Eight colonies which translated to the peptide sequence m-e-g-y-i-h-r, which was homologous to the protein cathepsin L. Two colonies each that translated to the peptide sequences h-a-i-y-p-r-h, h-s-r-l-l-d-q, i-q-s-p-h-f-f and y-a-a-h-r-s-h, which were homologous to the proteins itchy 3, discs large homolog, protocadherin and myelin transcription factor 1, respectively. The remaining colony sequences occurred only once, however within these sequences, several translated to peptides that had homology to the same protein. For example, a-h-p-h-h-s-m and h-p-h-h-r-i-f both contained the peptide sequence h-p-h-h with homology to mitogen activated protein kinase 8.

Organ of Corti = assay: Immunohistochemistry identification of phage binding regions in mouse inner ear (Organ of Corti); format: in vivo; conditions: phage 1×10^9 pfu injected into round window of neomycin-treated mice, anti-M13 immunostaining 1 hour after inoculation
Experimental: (§1) Candidate 7-mer peptide epitopes were selected from the BLAST queried sequences. Colonies were amplified in 20 ml LB media and recovered as previously described. Phage (1×10^9 pfu) were injected into the round window of mice previously treated with 1 μl 0.01 M neomycin injected into the posterior channel 48 hours prior to phage innoculation. Mice were sacrificed by intracardiac perfusion with 4% PBS buffered paraformaldehyde 1 hour after phage inoculation. The temporal bones were isolated and decalcified in Calex (Fisher Scientific, Pittsburgh, Pa.) for 24 hours. The temporal bones were embedded in paraffin and sectioned. Primary antibody directed against the M13 protein (rabbit anti-M13) in 1/100 concentration was added to tissue samples and allowed to incubate for 12 hrs at 4° C. The samples were washed in PBS and incubated with 1/50 concentration fluorescent secondary antibody (goat anti-rabbit, FITC) for 12 hrs at 4° C. After washing, tissue sections were visualized and photographed via fluorescent microscopy.
To determine the potential for identified peptide sequences to bind […] be purified individual batches of phage and injected them into the perilymph via the round window. The animals were allowed to recover and were then fixed via perfusion. Sections of the inner ear were immunostained for the presence phage to determine if the phage had been able to localize to supporting cells in vivo. […] The most common pattern of distribution that was seen was binding to the basement membrane.

[2] = mouse, in vivo
Description: As a screening test for balance function, mice were swim tested by dropping them from a fixed height into an opaque pool of water. […] Animals with impaired vestibular function are known to have to prolonged swim times. Mice were swim tested two months after aminoglycoside ablation followed by no treatment or treatment with Ad math1.11D.

[3] = system: myosin VII positive hair cells; conditions: mouse, in vivo
Experimental: Briefly, mice were treated with an injection of neomycin 10^−3 M into the scala tympani. After 5 days animals were re-anesthetized and 1 μl of Ad.math1.11d (108 pu) were delivered via a fenestration in the posterior semicircular canal. After 4 weeks, animals were sacrificed and then processed for myosin VII immunohistochemistry.

vestibular hair cells = assay: Vestibular hair cell counts after intracochlear neomycin and adenovector atoh1 delivery; conditions: aminoglycoside (neomycin 10^-3 M, 2 μl into inner ear) only, n=5; untreated controls 21.8+2
Experimental: Characterization of atoh1/math1 effects were as follows. Unilateral vestibular damage was induced by injecting 2 μl of neomycin (10^−3 M) in to the inner ear of mice. After inducing unilateral vestibular dysfunction mice received an intracochlear injection of an advanced generation adenovector carrying atoh1 driven by a human CMV promoter (Admath1.11D) via the round window membrane into the scala tympani. […] After one month recovery, animals were sacrificed and processed for histology. […] Cells were identified by position of the nucleus and every fifth section was counted and expressed as cell number per 100 μm length of neuroepithelium.

Macular Organs = assay: Immunohistochemistry identification of phage binding regions in mouse inner ear (Macular Organs); format: in vivo; conditions: phage 1×10^9 pfu injected into round window of neomycin-treated mice, anti-M13 immunostaining 1 hour after inoculation
Experimental: as §1
To determine the potential for identified peptide sequences to bind in vitro be purified individual batches of phage and injected them into the perilymph via the round window. The animals were allowed to recover and were then fixed via perfusion. […]

THQARSV [phage pIII NH2 terminal 7 amino acid peptide]
# of Common Sequences [1]: 1 | Phage binding site, Organ of Corti (Organ of Corti): No binding

ALQYHNL [phage pIII NH2 terminal 7 amino acid peptide]
# of Common Sequences [1]: 1 | Phage binding site, Organ of Corti (Organ of Corti): No binding

STTKLAL [phage pIII NH2 terminal 7 amino acid peptide]
# of Common Sequences [1]: 11 | Phage binding site, Organ of Corti (Organ of Corti): No binding

yaahrsh: phage pIII NH2 terminal 7 amino acid peptide (YAAHRSH)
# of Common Sequences [1]: 2

NC[C@@H]1O[C@H](O[C@H]2[C@@H](O)[C@H](O[C@@H]3[C@@H](O)[C@H](N)C[C@H](N)[C@H]3O[C@H]3O[C@H](CN)[C@@H](O)[C@H](O)[C@H]3N)O[C@@H]2CO)[C@H](N)[C@@H](O)[C@@H]1O [aminoglycoside, neomycin]
swim time (time to initiate purposeful swimming) [2]: 22+4.2 seconds | myosin VII positive cells in macular organs [3]: only occasional myosin VII positive cells | average hair cell counts, serially sectioned saccules (vestibular hair cells): 2.2+2 /100 μm

PPRPIPM
Phage binding site, Organ of Corti (Organ of Corti): No binding

SNQLLMT [phage pIII NH2 terminal 7 amino acid peptide]
# of Common Sequences [1]: 1 | Phage binding site, Organ of Corti (Organ of Corti): No binding

MPIPRPP [phage pIII NH2 terminal 7 amino acid peptide]
# of Common Sequences [1]: 1

SEGRLYK [phage pIII NH2 terminal 7 amino acid peptide]
# of Common Sequences [1]: 1 | Phage binding site, Organ of Corti (Organ of Corti): No binding

ahphhsm: phage pIII NH2 terminal 7 amino acid peptide (AHPHHSM)
# of Common Sequences [1]: 1

ProThrProMeThrLeuTyr
Phage binding site, Macular Organs (Macular Organs): No binding

hsrlldq: phage pIII NH2 terminal 7 amino acid peptide (HSRLLDQ)
# of Common Sequences [1]: 2

tvpqltt: phage pIII NH2 terminal 7 amino acid peptide (TVPQLTT)
# of Common Sequences [1]: 23

HPHHRIF [phage pIII NH2 terminal 7 amino acid peptide]
# of Common Sequences [1]: 1 | Phage binding site, Organ of Corti (Organ of Corti): No binding

getrapl
# of Common Sequences [1]: 1

HisAlaIleTyrProArgHis (HAIYPRH; printed: HisAlaIleTyrProArgHis) [phage pIII NH2 terminal 7 amino acid peptide]
# of Common Sequences [1]: 2

megyihr: phage pIII NH2 terminal 7 amino acid peptide (MEGYIHR)
# of Common Sequences [1]: 8

iqsphff: phage pIII NH2 terminal 7 amino acid peptide (IQSPHFF)
# of Common Sequences [1]: 2
